System: wild rats
Test: Field experiments with paired trap boxes: trap captures of wild rats
Assay type: in vivo, rat
Settings: Experiment 16, 4 μg synthetic androstenone
Description: Four field experiments were run in Vancouver B.C. to evaluate the effect of synthetic androstenone and synthetic testosterone on captures of female wild mice and rats in combination with species-specific male sex pheromone blend. Experimental replicates were set up along the interior and exterior walls of buildings as depicted in FIG. 7. Experiment 15 evaluated captures of wild mice in trap boxes baited with high-levels of androstenone; Experiment 16 evaluated captures of wild rats in traps baited with high-levels of androstenone; Experiment 17 evaluated captures of wild mice in traps baited with low-levels of testosterone; and Experiment 18 evaluated captures of wild mice in traps baited with low-levels of androstenone. Experiment 15 was run from Feb. 4, 2016 to Apr. 14, 2016. Experiment 16 was run from Feb. 26, 2016 to Sep. 19, 2016. Experiments 17 and 18 were run in parallel from Jun. 2, 2016 to Sep. 8, 2016.
Each replicate of Experiments 15 to 18 consisted of a pair of trap boxes (Mice: PROTECTA® Mouse, Bell Laboratories Inc., Madison, Wis. 53704, USA; Rats: PROTECTA® Sidekick™; Bell Laboratories Inc., Madison, Wis. 53704), with 50-cm spacing between boxes in each pair, and at least 2 m between pairs. Each trap box contained an armed snap trap (1, Mice: Victor® Easy Set® Mouse Trap; Rats: Victor® Easy Set® Rat Trap; Woodstream Corp, Lititz, Pa. 17543, USA) baited with a cereal-based food bait and a scintillation vial (2) containing synthetic sex pheromone blends. Each box in each pair also contained a treatment stimulus that consisted of a piece of Whatman #1 filter paper (3a) that by random assignment was treated with: 4 μg of synthetic androstenone dissolved in 50 μl ether (Experiments 15 and 16); 750 μg of synthetic testosterone dissolved in 50 μl ether (Experiment 17); or 750 μg of synthetic androstenone dissolved in 50 μl ether (Experiment 18). […]
Experiments 19 and 20 evaluated the effect of synthetic blends of progesterone and estradiol (estrogen) on captures of wild mice (Experiment 19) and wild rats (Experiment 20) in the field. […]

C[C@]12CCC(=O)C[C@@H]1CC[C@@H]1[C@@H]2CC[C@]2(C)C=CC[C@@H]12 [androstenone, 5α-androst-16-en-3-one]
captures of juvenile and adult male rats: no significant effect | captures of juvenile female rats: no significant effect | captures of adult female rats vs control boxes (with food bait and male rat sex pheromone blend): significantly more

From patent US11185077B2, “Attractants for rodents” (priority 2016, dated 2021)
